The record followed here is patent US11000033B2, “Ketone or oxime compound, and herbicide” (NISSAN CHEMICAL CORPORATION, priority 2014, dated 2021).

What all share (assay type): in vivo
The subject of one data set is Digitaria ciliaris. As to the kind of experiment: Test Example 4: herbicidal effect by soil treatment (symbol F). The note with it: for F: Digitaria ciliaris, herbicidal effect grade: 320 g/ha; for F (Digitaria ciliaris) herbicidal effect grade: application herbicide amount 320 g/ha. Summed up:
(§1)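 Seeds were sown in sterilized diluvial soil, covered with about 1.5 cm of soil, and the soil surface was sprayed with a water-diluted emulsion of the compound at a predetermined rate. Plants grew in a greenhouse at 25° C. to 30° C.; effects were scored visually 3 weeks after application.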

The subject of data set [1] is Echinochloa crus-galli var. crus-galli. Kind of data set: Test Example 5: herbicidal effect by foliage application, plastic box (symbol H). As to conditions: 320 g/ha, 3 weeks after application. Summed up: (§2)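 Visual herbicidal score, taken three weeks post-application, of seedlings sprayed on the foliage with water-diluted emulsion at a predetermined amount; plants were 14 days old, greenhouse-raised at 25° C. to 30° C.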

A further data set deals with Apera spica-venti. As to the kind of experiment: Test Example 4: herbicidal effect by soil treatment (symbol L). The note with it: for L: Apera spica-venti, herbicidal effect grade: 320 g/ha; for L (Apera spica-venti) herbicidal effect grade: application herbicide amount 320 g/ha. In short, it runs like this:
as §1

The subject of another data set is rapeseed. Kind of data set: Test Example 4: effect on crop by soil treatment (symbol g). As to conditions: for g: rapeseed, effect grade on crop: 320 g/ha; for g (rapeseed) effect on crop grade: application herbicide amount 320 g/ha. In short, it runs like this:
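Grown at 25° C. to 30° C. in a greenhouse, the crops came from seed sown spot-wise in sterilized diluvial soil under roughly 1.5 cm of covering soil.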

The subject of data set [2] is directly sowed rice plant. As to the kind of experiment: Test Example 3: effect on crop by foliage application, Wagner pot (symbol b). The note with it: application herbicide amount 320 g/ha. Summed up: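 Wagner pot (1/10000 are), alluvial soil, submerged 0.1–0.5 cm; sown E. crus-galli var. crus-galli, L. chinensis, C. difformis, rice; greenhouse 25–30 °C.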
The next data set concerns Avena fatua. As to the kind of experiment: Test Example 5: herbicidal effect by foliage application, plastic box (symbol I). The note with it: 320 g/ha, 3 weeks after application. In short, it runs like this:
as §2

In data set [3] the test system is Amaranthus retroflexus. As to the kind of experiment: Test Example 5: herbicidal effect by foliage application, plastic box (symbol N). As to conditions: 320 g/ha, 3 weeks after application. In short, it runs like this:
as §2

For data set [4], the system named is Echinochloa oryzacola Vasing. As to the kind of experiment: Test Example 1: herbicidal activity, application before weed generation in submerged conditions (symbol A). The note with it: application herbicide amount 320 g/ha. Summed up:
(§3)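 Ratings (5: ≥90%, near complete withering; 4: 70–<90%; 3: 40–<70%; 2: 20–<40%; 1: 5–<20%; 0: ≤5%) were assigned 3 weeks after the diluted emulsion was applied to the water surface of freshly sown, submerged pots.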

Data set [5] deals with Amaranthus retroflexus. Kind of data set: Test Example 4: herbicidal effect by soil treatment (symbol N). As to conditions: for N: Amaranthus retroflexus, herbicidal effect grade: 320 g/ha; for N (Amaranthus retroflexus) herbicidal effect grade: application herbicide amount 320 g/ha. Summed up: as §1
The next data set concerns Cyperus difformis. Kind of data set: Test Example 3: herbicidal effect by foliage application, Wagner pot (symbol E). As to conditions: application herbicide amount 320 g/ha. In short, it runs like this:
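Steps: fill pot with alluvial soil; add water to 0.1–0.5 cm depth; sow weed and rice seed; grow 14 days at 25–30 °C; spray diluted emulsion over the leaves; rate effect after 3 weeks.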

Another data set has as its system Galium spurium. Kind of data set: Test Example 5: herbicidal effect by foliage application, plastic box (symbol Q). As to conditions: 320 g/ha, 3 weeks after application. Summed up: as §2
For data set [6], the system named is Monochoria vaginalis. As to the kind of experiment: Test Example 2: herbicidal activity, application during weed generation in submerged conditions (symbol C). As to conditions: Table 23; application herbicide amount 320 g/ha; grade 0-5 by criteria of Test Example 1. Summed up: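 Submerged alluvial soil (4 cm) sown with mixed seed; greenhouse 25–30° C. 1–2 leaf: diluted emulsion onto water surface, preset dose. Visual score, 3 wk.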

For the next data set, the system named is Alopecurus myosuroides. As to the kind of experiment: Test Example 5: herbicidal effect by foliage application, plastic box (symbol J). As to conditions: 320 g/ha, 3 weeks after application. Summed up:
as §2

The subject of data set [7] is Monochoria vaginalis. Kind of data set: Test Example 1: herbicidal activity, application before weed generation in submerged conditions (symbol C). As to conditions: application herbicide amount 320 g/ha. Summed up: as §3

As to `CON=C(CC1CC(O)=C(c2c(C)cc(C)cc2C)C1=O)C1CCCCC1` (centres unmarked) [1-085], the “F: Digitaria ciliaris, herbicidal effect grade” value in the data set on Digitaria ciliaris is 0 (Herbicidal ratio of 5% or lower (almost no effect)). In addition, the “H: Echinochloa crus-galli var. crus-galli, herbicidal effect (criteria 0-5)” value in data set [1] is on record as 5 (Herbicidal ratio of 90% or more (almost completely withered)). For the same molecule, the “L: Apera spica-venti, herbicidal effect grade” value in the data set on Apera spica-venti was 3 (Herbicidal ratio of 40% or higher and lower than 70%). Besides, the “g: rapeseed, effect grade on crop” value with rapeseed is on record as 0 (Herbicidal ratio of 5% or lower (almost no effect)). In addition, the “effect on crop b (directly sowed rice plant), grade 0-5” value (shortened to “effect on crop b”) in [2] is listed as 5 (Herbicidal ratio of 90% or more (almost completely withered)). Besides, in the data set with Avena fatua, the “I: Avena fatua, herbicidal effect (criteria 0-5)” value is 3 (Herbicidal ratio of 40% or higher and lower than 70%). Also, the “N: Amaranthus retroflexus, herbicidal effect (criteria 0-5)” value in the data set on Amaranthus retroflexus [3] is on record as 0 (Herbicidal ratio of 5% or lower (almost no effect)). Moreover, the “Herbicidal effect grade, A: Echinochloa oryzacola Vasing.” value in [4] is 4 (Herbicidal ratio of 70% or higher and lower than 90%). Moreover, the “N: Amaranthus retroflexus, herbicidal effect grade” value with Amaranthus retroflexus [5] is reported as 0 (Herbicidal ratio of 5% or lower (almost no effect)). In addition, the “herbicidal effect on E, grade 0-5” value with Cyperus difformis is reported as 0 (Herbicidal ratio of 5% or lower (almost no effect)). Further, the “Q: Galium spurium, herbicidal effect (criteria 0-5)” value in the data set with Galium spurium is 0 (Herbicidal ratio of 5% or lower (almost no effect)). Moreover, the “Herbicidal effect grade, C: Monochoria vaginalis” value (“Herbicidal effect grade, C” below) in the data set with Monochoria vaginalis [6] and in the data set on Monochoria vaginalis [7] was 0 (Herbicidal ratio of 5% or lower (almost no effect)) in each case. In addition, in the data set with Alopecurus myosuroides, the “J: Alopecurus myosuroides, herbicidal effect (criteria 0-5)” value is 3 (Herbicidal ratio of 40% or higher and lower than 70%).
`CCC(CC1CC(O)=C(c2c(C)cc(C)cc2C)C1=O)=NOC` (centres unmarked) [1-038]: the “F (Digitaria ciliaris) herbicidal effect grade” value in the data set with Digitaria ciliaris is 5 (Herbicidal ratio of 90% or more (almost completely withered)). The “H: Echinochloa crus-galli var. crus-galli, herbicidal effect grade” value in data set [1] is given as 5 (Herbicidal ratio of 90% or more (almost completely withered)). Besides, in the data set on Apera spica-venti, the “L (Apera spica-venti) herbicidal effect grade” value is recorded as 5 (Herbicidal ratio of 90% or more (almost completely withered)). In the data set with rapeseed, the “g (rapeseed) effect on crop grade” value is 4 (Herbicidal ratio of 70% or higher and lower than 90%). In data set [2], the “effect on crop b” value is reported as 5 (Herbicidal ratio of 90% or more (almost completely withered)). Besides, the “I: Avena fatua, herbicidal effect grade” value with Avena fatua is given as 5 (Herbicidal ratio of 90% or more (almost completely withered)). Besides, the “N: Amaranthus retroflexus, herbicidal effect grade” value with Amaranthus retroflexus [3] is 2 (Herbicidal ratio of 20% or higher and lower than 40%). For the same molecule, in data set [4], the “Herbicidal effect grade, A: Echinochloa oryzacola Vasing.” value is on record as 5 (Herbicidal ratio of 90% or more (almost completely withered)). In the data set on Amaranthus retroflexus [5], the “N (Amaranthus retroflexus) herbicidal effect grade” value was 3 (Herbicidal ratio of 40% or higher and lower than 70%). In addition, the “herbicidal effect on E, grade 0-5” value with Cyperus difformis is listed as 5 (Herbicidal ratio of 90% or more (almost completely withered)). In addition, the “Q: Galium spurium, herbicidal effect grade” value in the data set with Galium spurium is reported as 0 (Herbicidal ratio of 5% or lower (almost no effect)). Also, the “Herbicidal effect grade, C” value in the data set on Monochoria vaginalis [6] was 4 (Herbicidal ratio of 70% or higher and lower than 90%); in the data set with Monochoria vaginalis [7], 3 (Herbicidal ratio of 40% or higher and lower than 70%). In the data set on Alopecurus myosuroides, the “J: Alopecurus myosuroides, herbicidal effect grade” value is 5 (Herbicidal ratio of 90% or more (almost completely withered)).
As for `CON=C(C)CC1CC(OC(=O)C(C)Oc2ccc(Oc3cnc4cc(Cl)ccc4n3)cc2)=C(c2c(C)cc(C)cc2C)C1=O` (centres unmarked) [1-087], the “F: Digitaria ciliaris, herbicidal effect grade” value in the data set with Digitaria ciliaris is given as 5 (Herbicidal ratio of 90% or more (almost completely withered)). Besides, the “H: Echinochloa crus-galli var. crus-galli, herbicidal effect (criteria 0-5)” value in data set [1] is given as 5 (Herbicidal ratio of 90% or more (almost completely withered)). The “L: Apera spica-venti, herbicidal effect grade” value in the data set on Apera spica-venti was 5 (Herbicidal ratio of 90% or more (almost completely withered)). Further, the “g: rapeseed, effect grade on crop” value in the data set with rapeseed was 5 (Herbicidal ratio of 90% or more (almost completely withered)). In addition, in data set [2], the “effect on crop b” value is 5 (Herbicidal ratio of 90% or more (almost completely withered)). Further, the “I: Avena fatua, herbicidal effect (criteria 0-5)” value in the data set on Avena fatua is given as 5 (Herbicidal ratio of 90% or more (almost completely withered)). In addition, the “N: Amaranthus retroflexus, herbicidal effect (criteria 0-5)” value with Amaranthus retroflexus [3] was 4 (Herbicidal ratio of 70% or higher and lower than 90%). Further, in data set [4], the “Herbicidal effect grade, A: Echinochloa oryzacola Vasing.” value is 5 (Herbicidal ratio of 90% or more (almost completely withered)). In addition, the “N: Amaranthus retroflexus, herbicidal effect grade” value in the data set on Amaranthus retroflexus [5] was 5 (Herbicidal ratio of 90% or more (almost completely withered)). Moreover, the “herbicidal effect on E, grade 0-5” value with Cyperus difformis is 5 (Herbicidal ratio of 90% or more (almost completely withered)). The “Q: Galium spurium, herbicidal effect (criteria 0-5)” value in the data set with Galium spurium is 4 (Herbicidal ratio of 70% or higher and lower than 90%). Moreover, the “Herbicidal effect grade, C” value in the data set with Monochoria vaginalis [6] is 1 (Herbicidal ratio of 5% or higher and lower than 20%); in the data set with Monochoria vaginalis [7], 1 (Herbicidal ratio of 5% or higher and lower than 20%). Moreover, in the data set with Alopecurus myosuroides, the “J: Alopecurus myosuroides, herbicidal effect (criteria 0-5)” value is 5 (Herbicidal ratio of 90% or more (almost completely withered)).
Take `CC(CC1CC(O)=C(c2c(C)cc(C)cc2C)C1=O)=NOCC(F)(F)F` (centres unmarked) [1-028]: in the data set with Digitaria ciliaris, the “F (Digitaria ciliaris) herbicidal effect grade” value is given as 5 (Herbicidal ratio of 90% or more (almost completely withered)). The “H: Echinochloa crus-galli var. crus-galli, herbicidal effect grade” value in data set [1] is listed as 5 (Herbicidal ratio of 90% or more (almost completely withered)). Besides, the “L (Apera spica-venti) herbicidal effect grade” value with Apera spica-venti is reported as 5 (Herbicidal ratio of 90% or more (almost completely withered)). Also, the “g (rapeseed) effect on crop grade” value with rapeseed was 4 (Herbicidal ratio of 70% or higher and lower than 90%). The “effect on crop b” value in data set [2] is given as 5 (Herbicidal ratio of 90% or more (almost completely withered)). Moreover, in the data set with Avena fatua, the “I: Avena fatua, herbicidal effect grade” value is 4 (Herbicidal ratio of 70% or higher and lower than 90%). The “N: Amaranthus retroflexus, herbicidal effect grade” value in the data set with Amaranthus retroflexus [3] is recorded as 0 (Herbicidal ratio of 5% or lower (almost no effect)). Moreover, the “Herbicidal effect grade, A: Echinochloa oryzacola Vasing.” value in data set [4] is on record as 5 (Herbicidal ratio of 90% or more (almost completely withered)). Also, the “N (Amaranthus retroflexus) herbicidal effect grade” value in the data set on Amaranthus retroflexus [5] was 3 (Herbicidal ratio of 40% or higher and lower than 70%). Moreover, the “herbicidal effect on E, grade 0-5” value in the data set on Cyperus difformis is reported as 5 (Herbicidal ratio of 90% or more (almost completely withered)). Moreover, the “Q: Galium spurium, herbicidal effect grade” value in the data set with Galium spurium is 3 (Herbicidal ratio of 40% or higher and lower than 70%). Further, the “Herbicidal effect grade, C” value is 0 (Herbicidal ratio of 5% or lower (almost no effect)) in the data set with Monochoria vaginalis [6]; 1 (Herbicidal ratio of 5% or higher and lower than 20%) in the data set on Monochoria vaginalis [7]. Besides, in the data set on Alopecurus myosuroides, the “J: Alopecurus myosuroides, herbicidal effect grade” value is 5 (Herbicidal ratio of 90% or more (almost completely withered)).
